15 molecules from US10005768B2, “Carboxamide derivatives and use thereof” (Purdue Pharma L.P., priority 2013, dated 2018) can be followed below.

As usually defined, the IC50 is the midpoint of a concentration-inhibition curve.

In this assay the target is human Nav1.7 (Homo sapiens (Human), UniProt Q15858). The experiment in a line: FLIPR sodium dye assay (CoroNa Green AM Na+ dye, primary fluorescence assay). Conditions: recombinant Nav1.7/HEK293 cells. It is filed as cell-based. Put shortly: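 HEK293 cells stably expressing human Nav1.7 α subunit (no β/γ subunits), loaded with 5 μM CoroNa Green Na+ dye in HEPES-buffered Hanks-type saline, pH 7.3. Na+ influx stimulated by 100 μM veratridine plus 10 μg/mL Leiurus scorpion venom; compounds tested at 20 μM down to 0.001 μM (10 points, 0.2% DMSO).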
Sequence of human Nav1.7 (Q15858 other isoform, or with tags, fused parts or gaps): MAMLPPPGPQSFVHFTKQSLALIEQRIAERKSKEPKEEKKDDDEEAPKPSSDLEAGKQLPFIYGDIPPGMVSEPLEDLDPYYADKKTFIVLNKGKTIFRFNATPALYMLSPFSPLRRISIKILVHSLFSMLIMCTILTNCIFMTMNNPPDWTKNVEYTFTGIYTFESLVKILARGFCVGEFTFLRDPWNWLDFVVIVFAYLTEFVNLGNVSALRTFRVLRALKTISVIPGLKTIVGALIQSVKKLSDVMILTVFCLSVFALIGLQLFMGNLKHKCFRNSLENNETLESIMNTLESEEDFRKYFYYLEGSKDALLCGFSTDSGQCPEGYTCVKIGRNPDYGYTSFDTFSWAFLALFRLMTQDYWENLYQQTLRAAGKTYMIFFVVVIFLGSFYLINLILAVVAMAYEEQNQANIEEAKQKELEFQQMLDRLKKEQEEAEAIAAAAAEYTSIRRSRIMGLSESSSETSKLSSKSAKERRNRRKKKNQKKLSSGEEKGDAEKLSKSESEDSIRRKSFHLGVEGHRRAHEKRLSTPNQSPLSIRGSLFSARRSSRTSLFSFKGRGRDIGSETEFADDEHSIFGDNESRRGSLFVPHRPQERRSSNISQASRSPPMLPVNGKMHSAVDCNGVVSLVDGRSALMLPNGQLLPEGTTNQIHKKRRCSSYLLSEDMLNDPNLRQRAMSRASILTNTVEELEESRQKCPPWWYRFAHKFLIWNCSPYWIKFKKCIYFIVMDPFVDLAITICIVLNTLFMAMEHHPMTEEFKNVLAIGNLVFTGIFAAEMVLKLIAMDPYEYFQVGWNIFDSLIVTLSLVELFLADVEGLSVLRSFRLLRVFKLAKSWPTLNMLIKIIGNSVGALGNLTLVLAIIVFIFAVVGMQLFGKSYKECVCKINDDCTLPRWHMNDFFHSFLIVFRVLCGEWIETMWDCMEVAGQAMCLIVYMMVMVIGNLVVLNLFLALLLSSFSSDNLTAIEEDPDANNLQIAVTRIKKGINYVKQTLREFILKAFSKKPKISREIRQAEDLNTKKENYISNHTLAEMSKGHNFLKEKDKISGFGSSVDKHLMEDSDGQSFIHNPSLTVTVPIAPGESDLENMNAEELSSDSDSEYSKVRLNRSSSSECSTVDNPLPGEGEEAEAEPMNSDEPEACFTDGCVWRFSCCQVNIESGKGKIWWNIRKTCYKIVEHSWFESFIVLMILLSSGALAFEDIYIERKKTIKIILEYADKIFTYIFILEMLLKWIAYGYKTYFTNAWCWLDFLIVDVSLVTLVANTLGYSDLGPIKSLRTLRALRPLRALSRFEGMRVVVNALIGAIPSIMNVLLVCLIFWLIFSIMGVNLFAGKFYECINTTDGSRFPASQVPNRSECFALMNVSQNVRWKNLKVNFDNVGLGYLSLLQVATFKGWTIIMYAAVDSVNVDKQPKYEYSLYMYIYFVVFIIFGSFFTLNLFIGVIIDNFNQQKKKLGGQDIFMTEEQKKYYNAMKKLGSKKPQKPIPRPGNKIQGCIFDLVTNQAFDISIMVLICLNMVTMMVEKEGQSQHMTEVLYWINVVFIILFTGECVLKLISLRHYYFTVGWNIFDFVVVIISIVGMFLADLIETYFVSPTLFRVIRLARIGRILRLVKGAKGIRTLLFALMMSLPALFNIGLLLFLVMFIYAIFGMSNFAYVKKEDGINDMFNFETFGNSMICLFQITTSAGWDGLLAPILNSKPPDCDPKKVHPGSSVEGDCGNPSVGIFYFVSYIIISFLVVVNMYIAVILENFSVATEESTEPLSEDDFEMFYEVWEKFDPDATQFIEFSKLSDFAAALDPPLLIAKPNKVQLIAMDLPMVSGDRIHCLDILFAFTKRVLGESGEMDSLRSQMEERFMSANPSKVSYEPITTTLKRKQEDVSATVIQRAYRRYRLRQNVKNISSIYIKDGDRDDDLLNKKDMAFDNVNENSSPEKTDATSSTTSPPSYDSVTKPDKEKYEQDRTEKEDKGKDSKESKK
For `NC(=O)c1cccc(-c2ccc(Oc3ccc(C(F)(F)F)cc3CNC3CCCC3)cc2)n1` [compound 108, 6-(4-(2-((cyclopentylamino)-methyl)-4-(trifluoromethyl)-phenoxy)phenyl)picolinamide], the half-maximal inhibitory concentration (IC50) stood at 0.28 ± 0.009 µM.

With `NC(=O)c1cccc(-c2ccc(Oc3ccc(C(F)(F)F)cc3CN3CCCCC3)cc2)n1` [compound 49, 6-(4-(2-(piperidin-1-ylmethyl)-4-(trifluoromethyl)phenoxy)phenyl) picolinamide], the IC50 was 0.096 ± 0.01 µM.

Consider `CCN(CC)Cc1cc(C(F)(F)F)ccc1Oc1ccc(-c2cccc(C(N)=O)n2)cc1` [compound 118, 6-(4-(2-((diethylamino)methyl)-4-(trifluoromethyl)phenoxy)phenyl) picolinamide], for which the IC50 was 0.118 ± 0.012 µM.

Regarding `NC(=O)c1cccc(-c2ccc(Oc3ccc(C(F)(F)F)cc3C(=O)O)cc2)n1` [compound 159, 2-(4-(6-carbamoylpyridin-2-yl)phenoxy)-5-(trifluoro-methyl)benzoic acid], the IC50 came to 1.26 ± 0.135 µM.

As to `O=C1CN(Cc2cc(C(F)(F)F)ccc2Oc2ccc(-c3cccc([C@H](O)CO)n3)cc2)CCN1` [compound 74, (S)-4-(2-(4-(6-(1,2-dihydroxyethyl)pyridin-2-yl)phenoxy)-5-(trifluoro-methyl)benzyl)piperazin-2-one], the half-inhibitory concentration (IC50) was determined as 0.672 ± 0.059 µM.

`NC(=O)c1cccc(-c2ccc(Oc3ccc(C(F)(F)F)cc3CN[C@H]3CCNC3=O)cc2)n1` [compound 46, (S)-6-(4-(2-(((2-oxopyrrolidin-3-yl)amino)methyl)-4-(trifluoro-methyl)phenoxy)phenyl)picolin-amide]: the IC50 was 2.58 ± 0.692 µM.

As for `N#Cc1ccc(Oc2ccc(-c3cccc(C(N)=O)n3)cc2)c(-c2ccncc2)c1` [compound 15, 6-(4-(4-cyano-2-(pyridin-4-yl)phenoxy)phenyl)picolinamide], the IC50 is 0.147 ± 0.016 µM.

On to `NC(=O)c1cccc(-c2ccc(Oc3ccc(C(F)(F)F)cc3CN3CCC[C@H]3CO)cc2)n1` [compound 41, (S)-6-(4-(2-((2-(hydroxyl-methyl)pyrrolidin-1-yl)methyl)-4-(trifluoromethyl)phenoxy)phenyl) picolinamide], for which the IC50 was 1.13 ± 0.1 µM.

As for `NC(=O)c1cccc(-c2ccc(Oc3ccc(F)cc3)c(C(F)(F)F)c2)n1` [compound 90, 6-(4-(4-fluorophenoxy)-3-(trifluoromethyl)phenyl)picolin-amide], the IC50 was more than 20 µM.

Consider `NC(=O)c1cccc(-c2ccc(Oc3ccc(F)cc3)cc2C(F)(F)F)n1` [compound 91, 6-(4-(4-fluorophenoxy)-2-(trifluoromethyl)phenyl)picolin-amide], for which the 50% inhibitory concentration (IC50) was 0.577 ± 0.056 µM.

On to `NC(=O)c1cccc(-c2ccc(Oc3ccc(F)cc3)c(CN3CCCC3)c2)n1` [compound 97, 6-(4-(4-fluorophenoxy)-3-(pyrrolidin-1-ylmethyl)phenyl)-picolinamide], for which the IC50 is 4.24 ± 0.919 µM.

`NC(=O)c1cccc(-c2ccc(Oc3ccc(C(F)(F)F)cc3CN3CCC[C@@H]3CO)cc2)n1` [compound 42, (R)-6-(4-(2-((2-(hydroxyl-methyl)pyrrolidin-1-yl)methyl)-4-(trifluoromethyl)phenoxy)phenyl) picolinamide]: the concentration for half-maximal inhibition (IC50) came to 1.17 ± 0.186 µM.

As to `CC(C)(C)OC(=O)N1CCC(NCc2cc(C(F)(F)F)ccc2Oc2ccc(-c3cccc(C(N)=O)n3)cc2)C1` (stereo not drawn) [compound 48, tert-butyl 3-((2-(4-(6-carbamoylpyridin-2-yl)phenoxy)-5-(trifluoromethyl)benzyl)-amino)pyrrolidine-1-carboxylate], the half-maximal inhibitory concentration (IC50) is 0.913 ± 0.016 µM.

Regarding `CN(C)Cc1cc(C(F)(F)F)ccc1Oc1ccc(-c2cccc(C(N)=O)n2)cc1` [compound 39, 6-(4-(2-((dimethylamino)methyl)-4-(trifluoromethyl)phenoxy)-phenyl)picolinamide], the IC50 stood at 0.179 ± 0.034 µM.

Take `COC(=O)c1cccc(-c2ccc(Oc3ccc(C(F)(F)F)cc3C(O)C#N)cc2)n1` (stereo not drawn) [compound 144, methyl 6-(4-(2-(cyano(hydroxy)methyl)-4-(trifluoromethyl)phenoxy)phenyl) picolinate]: the IC50 was determined as 3.79 ± 0.377 µM.
